Test results published in patent US11447472B2, “Polymorophs of 5-aza-4′-thio-2′-deoxycytidine” (Southern Research Institute, priority 2020, dated 2022).
“And” between values parts separate entries of the source, which are not always exact repeats. Equal values may be shown once. Read-outs that look alike come from different tables or passages of the source. Each block holds one molecule with its values, some of them ahead of it.

Legend:
[1] = Dissolution rate (IDR) at pH 1.2, 6.5 and 5.0; assay type: physicochemical
[2] = Pharmacokinetics of capsules in male SD rats; conditions: 2 mg/kg; for AUC(0-inf) / AUC(0-t) / Cmax / MRT inf / half-life / Tmax: po; for AUC(0-inf): AUCInf; for AUC(0-t): AUClast; for MRT inf: MRTInf_obs
[3] = tested on: HL-60 cell lines; test: CellTiter-Glo cell viability, HL-60; assay type: cell-based; conditions: HL-60, 3 days, FIG. 24
Method: (§1) K562 and HL-60 cell lines were cultured and maintained in RPMI (10% FBS, 1% Penicillin-Streptomycin) medium at 37° C., 95% Air, and 5% CO2. K562 and HL-60 cell lines were each seeded in 96-well plates at a density of 3000 cells/well (90 μl). Form A and SM were treated in each well at a final concentration of 10 μM by treating 10 μl using 3-fold dilution. The cells were incubated for 3 days at 37° C., 95% Air, and 5% CO2. 96-well plates were placed in room temperature for 30 minutes in order to equilibrate. Then, 100 μl of CellTiter-Glo® Luminescent Cell Viability Assay Reagent was added in 96-wells and incubated for 10 minutes in room temperature. Luminescence was measured using Luminometer and IC50 value was analyzed using GraphPrism.

[4] = tested on: K562 cell lines; test: CellTiter-Glo cell viability, K562; assay type: cell-based; conditions: K562, 3 days, FIG. 23
Method: as §1

[5] = tested on: blood cancer cells (Mv4-11); test: IC50 in blood cancer cells (Mv4-11) at different exposure times; assay type: cell-based; conditions: Homo sapiens
Method: Furthermore, the half maximal inhibitory concentration (IC50) was measured at 1 hr, 2 hr, and 4 hr after the blood cancer cells (Mv4-11) were treated with aza-T-dCyd starting material (SM). […] In addition, the measured IC50 at 4 hr was about 80 nM, which was much higher than the expected value of 20 nM. Therefore, it was confirmed that the efficiency of aza-T-dCyd starting material (SM) greatly decreases as the exposure time of the compound to the cells increases.

[6] = tested on: tumor; test: Tumor size (in vivo luciferase activity) in female NOD-SCID mice; conditions: for tumor size (in vivo luciferase activity): 5 days on, 2 days rest, 9 days rest, repeated, FIG. 17
Method: Aza-T-dCyd starting material (SM) was administered to […] female NOD-SCID mice splitting into four groups. Group 1 was a vehicle control group. In group 2, 2.0 mg/kg of aza-T-dCyd starting material (SM) was administered once a day, and in group 3, 1.0 mg/kg of aza-T-dCyd starting material (SM) was administered twice a day. In groups 2 and 3, aza-T-dCyd starting material (SM) in the above amounts was administered for 5 days followed by 2 days as a rest period, and was administered again for another 5 days followed by 9 days as another rest period. This cycle was repeated. In group 4, 1.0 mg/kg of aza-T-dCyd starting material (SM) was administered once a day for five days followed by 2 days as a rest period, and this cycle was repeated.

[7] = 0.25 h, capsule (8:92 w/w with microcrystalline cellulose), male SD rat
[8] = 0.25 h, capsule, mean of two male SD rats
[9] = 0.5 h, capsule, mean of two male SD rats
[10] = capsule, mean of two male SD rats
[11] = male, SD, rat, plasma, Mean, capsule, mean of two male SD rats
[12] = male, SD, rat, plasma, individual rat, capsule, male SD rat

IDR ([1]; FaSSIF, pH 6.5): 2.2 ± 0.06 mg/mL/Cm^2/min
IDR ([1]; FeSSIF, pH 5.0): 4.6 ± 0.07 mg/mL/Cm^2/min
IDR ([1]; SGF, pH 1.2): 7.4 ± 0.21 mg/mL/Cm^2/min
Concentration (plasma), individual rat [2, 7]: 77.2 ng/mL and 511 ng/mL
Concentration (plasma), Mean [2, 8]: 294 ng/mL
Concentration (plasma), individual rat ([2]; 0.5 h, capsule, male SD rat): 254 ng/mL and 721 ng/mL
Concentration (plasma), Mean [2, 9]: 488 ng/mL
Concentration (plasma), individual rat ([2]; 1 h, capsule, male SD rat): 815 ng/mL and 912 ng/mL
Concentration (plasma), Mean ([2]; 1 h, capsule, mean of two male SD rats): 864 ng/mL
Concentration (plasma), individual rat ([2]; 2 h, capsule, male SD rat): 677 ng/mL and 645 ng/mL
Concentration (plasma), Mean ([2]; 2 h, capsule, mean of two male SD rats): 661 ng/mL
Concentration (plasma), individual rat ([2]; 4 h, capsule, male SD rat): 556 ng/mL and 420 ng/mL
Concentration (plasma), Mean ([2]; 4 h, capsule, mean of two male SD rats): 488 ng/mL
Concentration (plasma), individual rat ([2]; 6 h, capsule, male SD rat): 397 ng/mL and 307 ng/mL
Concentration (plasma), Mean ([2]; 6 h, capsule, mean of two male SD rats): 352 ng/mL
Concentration (plasma), individual rat ([2]; 8 h, capsule, male SD rat): 261 ng/mL and 210 ng/mL
Concentration (plasma), Mean ([2]; 8 h, capsule, mean of two male SD rats): 236 ng/mL
Concentration (plasma), individual rat ([2]; 24 h, capsule, male SD rat): 6.71 ng/mL and 4.29 ng/mL
Concentration (plasma), Mean ([2]; 24 h, capsule, mean of two male SD rats): 5.50 ng/mL
AUCInf, individual rat ([2]; capsule, male SD rat): 6079 ng·h/mL and 5446 ng·h/mL
AUC_%Extrap_obs, individual rat ([2]; capsule, male SD rat): 0.485% and 0.329%
AUClast, individual rat ([2]; capsule, male SD rat): 6050 ng·h/mL and 5428 ng·h/mL
AUClast/D, individual rat ([2]; capsule, male SD rat): 3020 ng·h/mL per mg/kg and 2710 ng·h/mL per mg/kg
Cmax, individual rat ([2]; capsule, male SD rat): 815 ng/mL and 912 ng/mL
MRTInf_obs, individual rat ([2]; capsule, male SD rat): 5.40 h and 4.83 h
T1/2, individual rat ([2]; capsule, male SD rat): 3.05 h and 2.89 h
Tmax, individual rat ([2]; capsule, male SD rat): 1.00 h
AUC values higher than SM ([2]; capsule, male SD rats): about 30%
Cmax value relative to SM ([2]; capsule, male SD rats, higher than SM): about 1.3 times
AUCInf, Mean [2, 10]: 5763 ng·h/mL
AUC_%Extrap_obs, Mean [2, 10]: 0.407%
AUClast, Mean [2, 10]: 5739 ng·h/mL
AUClast/D, Mean [2, 10]: 2870 ng·h/mL per mg/kg
Cmax, Mean [2, 10]: 864 ng/mL
MRTInf_obs, Mean [2, 10]: 5.11 h
T1/2, Mean [2, 10]: 2.97 h
Tmax, Mean [2, 10]: 1.00 h
IC50 value lower than SM [3]: about 5%
IC50 value lower than SM [4]: about 5%
Structure (SMILES): Nc1ncn([C@H]2C[C@H](O)[C@@H](CO)S2)c(=O)n1 [Form A, 5-Aza-4′-thio-2′-deoxycytidine]

Concentration (plasma), individual rat [2, 7]: 29.1 ng/mL and 64.9 ng/mL
Concentration (plasma), Mean [2, 8]: 47.0 ng/mL
Concentration (plasma), individual rat ([2]; 0.5 h, capsule, male SD rat): 123 ng/mL and 243 ng/mL
Concentration (plasma), Mean [2, 9]: 183 ng/mL
Concentration (plasma), individual rat ([2]; 1 h, capsule, male SD rat): 321 ng/mL and 610 ng/mL
Concentration (plasma), individual rat ([2]; 2 h, capsule, male SD rat): 613 ng/mL
Concentration (plasma), individual rat ([2]; 4 h, capsule, male SD rat): 442 ng/mL
Concentration (plasma), individual rat ([2]; 6 h, capsule, male SD rat): 283 ng/mL
Concentration (plasma), individual rat ([2]; 8 h, capsule, male SD rat): 199 ng/mL
Concentration (plasma), individual rat ([2]; 24 h, capsule, male SD rat): 2.65 ng/mL and 4.48 ng/mL
AUCInf, individual rat ([2]; capsule, male SD rat): 4780 ng·h/mL
AUC_%Extrap_obs, individual rat ([2]; capsule, male SD rat): 0.255% and 0.402%
AUClast, individual rat ([2]; capsule, male SD rat): 4761 ng·h/mL
AUClast/D, individual rat ([2]; capsule, male SD rat): 2030 ng·h/mL per mg/kg and 2380 ng·h/mL per mg/kg
Cmax, individual rat ([2]; capsule, male SD rat): 613 ng/mL
MRTInf_obs, individual rat ([2]; capsule, male SD rat): 5.23 h
T1/2, individual rat ([2]; capsule, male SD rat): 2.98 h
AUC_%Extrap_obs, Mean [2, 10]: 0.329%
AUClast/D, Mean [2, 10]: 2210 ng·h/mL per mg/kg
concentration at 1 h ([2]; male, SD, rat, plasma, oral, Concentration (plasma), Mean, 1 h, capsule, mean of two male SD rats): 466 ng/mL
concentration at 2 h ([2]; male, SD, rat, plasma, oral, Concentration (plasma), Mean, 2 h, capsule, mean of two male SD rats): 657 ng/mL
concentration at 4 h ([2]; male, SD, rat, plasma, oral, Concentration (plasma), Mean, 4 h, capsule, mean of two male SD rats): 415 ng/mL
concentration at 6 h ([2]; male, SD, rat, plasma, oral, Concentration (plasma), Mean, 6 h, capsule, mean of two male SD rats): 272 ng/mL
concentration at 8 h ([2]; male, SD, rat, plasma, oral, Concentration (plasma), Mean, 8 h, capsule, mean of two male SD rats): 178 ng/mL
concentration at 24 h ([2]; male, SD, rat, plasma, oral, Concentration (plasma), Mean, 24 h, capsule, mean of two male SD rats): 3.57 ng/mL
concentration at 2 h ([2]; male, SD, rat, plasma, oral, Concentration (plasma), individual rat, 2 h, capsule, male SD rat): 700 ng/mL
concentration at 4 h ([2]; male, SD, rat, plasma, oral, Concentration (plasma), individual rat, 4 h, capsule, male SD rat): 387 ng/mL
concentration at 6 h ([2]; male, SD, rat, plasma, oral, Concentration (plasma), individual rat, 6 h, capsule, male SD rat): 261 ng/mL
concentration at 8 h ([2]; male, SD, rat, plasma, oral, Concentration (plasma), individual rat, 8 h, capsule, male SD rat): 156 ng/mL
AUC(0-inf) [2, 11]: 4430 ng·h/mL
AUC(0-inf) [2, 12]: 4080 ng·h/mL
AUC(0-t) [2, 11]: 4410 ng·h/mL
AUC(0-t) [2, 12]: 4060 ng·h/mL
Cmax [2, 11]: 657 ng/mL
Cmax [2, 12]: 700 ng/mL
MRT inf [2, 11]: 5.15 h
MRT inf [2, 12]: 5.06 h
half-life ([2]; male, SD, rat, plasma, T1/2, Mean, capsule, mean of two male SD rats): 2.85 h
half-life ([2]; male, SD, rat, plasma, T1/2, individual rat, capsule, male SD rat): 2.72 h
Tmax [2, 11]: 2 h
Tmax [2, 12]: 2 h
IC50 ([5]; Mv4-11, 1 hr after treatment, read-out: measured IC50 at 1 hr): ~160 nM
IC50 ([5]; Mv4-11, 2 hr after treatment, read-out: measured IC50 at 2 hr): ~120 nM
IC50 ([5]; Mv4-11, 4 hr after treatment, read-out: measured IC50 at 4 hr): ~80 nM
IC50 ([5]; Mv4-11, expected from the IC50 measured at 1 hr, read-out: expected IC50 at 2 hr): 80 nM
IC50 ([5]; Mv4-11, expected from the IC50 measured at 1 hr, read-out: expected IC50 at 4 hr): 20 nM
Structure (SMILES): Nc1ncn([C@H]2C[C@H](O)[C@@H](CO)S2)c(=O)n1 [SM, 5-Aza-4′-thio-2′-deoxycytidine]
tumor size on day 43 ([6]; Group 2 (2.0 mg/kg, once a day) compared with 'Group 1 (1.0 mg/kg, twice a day)', FIG. 18): significantly smaller
tumor size (in vivo luciferase activity) ([6]; Group 2: 2.0 mg/kg once a day): most greatly suppressed
tumor size (in vivo luciferase activity) ([6]; Group 3: 1.0 mg/kg twice a day): sharply increased after 40 days
